# Source: patent US20220056043A1, “NITROGEN-CONTAINING FUSED CYCLIC COMPOUND, PREPARATION METHOD THEREFOR AND USE THEREOF” (SICHUAN KELUN-BIOTECH BIOPHARMACEUTICAL CO., LTD., priority 2019, published 2022)
# Experiments:
# hNLRP3 inflammasome = molecular target: T1, hNLRP3 inflammasome (Homo sapiens, UniProt Q96P20); test: Agonistic effect on the expression of IL-1β in THP-1 cells after PMA-induced differentiation (HTRF); type: cell-based; details: IL-1β level, PMA-differentiated THP-1 cells, 6 hours
# T1 construct: endogenous in cells; host or cells: THP-1 cells, PMA-differentiated
# Text: Experimental Example 1: Agonistic Effect of the Compound of the Invention on the Expression of IL-1β in THP-1 Cells after PMA-Induced Differentiation
# In this test, a HTRF (homogeneous time-resolved fluorescence) detection method was used to test the effect of the compound of the invention on the level of downstream cytokine IL-1β of NLRP3 to evaluate the agonistic effect of the compound on hNLRP3 inflammasome or hNLRP3 inflammasome pathway at a cellular level.
# Reagent: RPMI 1640 (Hyclone); heat-inactivated FBS (fetal bovine serum) (Gibco); PMA (phorbol myristal acetate) (Beyotime)
# Kit: IL-1β assay kit (CISIO)
# 1) THP-1 cells in a logarithmic growth phase were seeded in a T75 culture flask at a density of 5×10^5 cells/well, and cultured in a cell incubator at 37° C., 5% CO2 for 24 hours, and then 1 μM PMA was used to induce THP-1 suspension cells to become adherent macrophages. The medium was RPMI 1640 containing 10% heat-inactivated FBS and 0.05 mM β-mercaptoethanol.
# 2) The cells were induced and cultured for 24 hours. Then the adherent cells were trypsinized and centrifuged at 1000 rpm for 5 min. The supernatant was removed, and the cells were resuspended to a density of 2×10^6 cells/mL in RPMI 1640 medium containing 2% heat-inactivated FBS. 50 μL/well of cell resuspension was taken and spread on a 96-well plate such that the number of cells in each well was 1×10^5.
# 3) An appropriate amount of 10 mM DMSO solution of the compound to be tested was taken and diluted to a concentration of 2× test concentration with RPMI 1640 medium containing 2% heat-inactivated FBS. 50 μL/well of the dilution was added to the cells in the 96-well plate, and mixed well. The plate was placed in a cell incubator at 37° C., 5% CO2 for 6 hours. The supernatant was collected, and the level of IL-1β was measured in accordance with the instructions of the IL-1β detection kit.
# 4) EC50 was fitted by the GraphPad software log(agonist) vs. response—Variable slope four-parameter method.
# hTLR8 = molecular target: T2, hTLR8 (Homo sapiens, UniProt Q9NR97); test: Agonistic effect on hTLR8, HEK-Blue hTLR8 cells, alkaline phosphatase secretion; type: cell-based; details: 16 hours
# T2 construct: host or cells: HEK-Blue hTLR8 cells
# T2 sequence (Q9NR97 27-1041): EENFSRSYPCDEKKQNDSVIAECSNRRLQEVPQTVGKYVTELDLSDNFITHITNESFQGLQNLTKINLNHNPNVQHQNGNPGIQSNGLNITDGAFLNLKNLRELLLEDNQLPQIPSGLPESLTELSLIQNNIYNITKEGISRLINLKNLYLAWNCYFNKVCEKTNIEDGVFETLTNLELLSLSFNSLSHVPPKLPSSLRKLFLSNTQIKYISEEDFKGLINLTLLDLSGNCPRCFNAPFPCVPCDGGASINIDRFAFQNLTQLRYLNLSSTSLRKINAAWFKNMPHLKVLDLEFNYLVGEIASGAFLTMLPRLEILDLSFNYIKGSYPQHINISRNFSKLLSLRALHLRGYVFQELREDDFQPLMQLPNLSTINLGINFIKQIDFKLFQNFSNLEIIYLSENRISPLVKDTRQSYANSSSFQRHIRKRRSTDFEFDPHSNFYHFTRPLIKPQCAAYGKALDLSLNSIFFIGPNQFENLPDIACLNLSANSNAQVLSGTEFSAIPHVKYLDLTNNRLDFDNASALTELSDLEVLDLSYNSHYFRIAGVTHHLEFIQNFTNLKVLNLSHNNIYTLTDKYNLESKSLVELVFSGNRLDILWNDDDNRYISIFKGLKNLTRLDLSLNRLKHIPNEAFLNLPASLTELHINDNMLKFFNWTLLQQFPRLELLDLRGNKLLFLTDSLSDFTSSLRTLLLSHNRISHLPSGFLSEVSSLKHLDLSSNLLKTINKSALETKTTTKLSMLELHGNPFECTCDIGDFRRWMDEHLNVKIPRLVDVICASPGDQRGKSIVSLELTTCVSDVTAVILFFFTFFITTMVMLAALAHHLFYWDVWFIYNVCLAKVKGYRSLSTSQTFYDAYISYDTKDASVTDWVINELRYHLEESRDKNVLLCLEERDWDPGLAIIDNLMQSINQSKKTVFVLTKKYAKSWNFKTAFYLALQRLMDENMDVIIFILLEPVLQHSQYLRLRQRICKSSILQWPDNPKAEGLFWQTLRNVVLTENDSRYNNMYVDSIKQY
# Experimental: Experimental Example 4: Agonistic Effect of the Compound of the Invention on hTLR8
# In this test, the secretion of alkaline phosphatase in HEK-Blue cells was measured to test the activating effect of the compound of the invention on TLR8 signaling pathway, so as to evaluate the specificity of the agonistic effect of the compound on NLRP3 pathway.
# Reagents: DMEM (High glucose); FBS (fetal bovine serum) (Gibco); QUANTI-Blue/InvivoGen/rep-qb2
# Cells: HEK-Blue™ hTLR8 cells (human TLR 8 cells) (InvivoGen) Experimental Procedures:
# 1) The HEK-Blue™ hTLR8 cells in a logarithmic growth phase were trypsinized and resuspended in the medium to a concentration of 2×10^6 cells/mL. 50 μL/well of the cell suspension was added to a 96-well plate. An appropriate amount of 10 mM DMSO solution of the compound to be tested was taken and diluted to a concentration of 2× test concentration with the medium. 50 μL/well was added to the cells in the 96-well plate. The plate was incubated in an incubator at 37° C. and 5% CO2 for 16 hours. The medium was DMEM (High glucose) containing 10% FBS. 2) After the cell incubation, 10 μL of cell culture supernatant was transferred to a 96-well plate. 90 μL/well of QUANTI-Blue detection solution was added, and the mixture was incubated at 37° C. for 3 hours. OD620 was read using a microplate reader.
# 3) The EC50 of the effect of the tested compound to stimulate hTLR8 was fitted by the GraphPad software log(agonist) vs. response—Variable slope four-parameter method.
# T1 sequence (Q96P20 whole entry): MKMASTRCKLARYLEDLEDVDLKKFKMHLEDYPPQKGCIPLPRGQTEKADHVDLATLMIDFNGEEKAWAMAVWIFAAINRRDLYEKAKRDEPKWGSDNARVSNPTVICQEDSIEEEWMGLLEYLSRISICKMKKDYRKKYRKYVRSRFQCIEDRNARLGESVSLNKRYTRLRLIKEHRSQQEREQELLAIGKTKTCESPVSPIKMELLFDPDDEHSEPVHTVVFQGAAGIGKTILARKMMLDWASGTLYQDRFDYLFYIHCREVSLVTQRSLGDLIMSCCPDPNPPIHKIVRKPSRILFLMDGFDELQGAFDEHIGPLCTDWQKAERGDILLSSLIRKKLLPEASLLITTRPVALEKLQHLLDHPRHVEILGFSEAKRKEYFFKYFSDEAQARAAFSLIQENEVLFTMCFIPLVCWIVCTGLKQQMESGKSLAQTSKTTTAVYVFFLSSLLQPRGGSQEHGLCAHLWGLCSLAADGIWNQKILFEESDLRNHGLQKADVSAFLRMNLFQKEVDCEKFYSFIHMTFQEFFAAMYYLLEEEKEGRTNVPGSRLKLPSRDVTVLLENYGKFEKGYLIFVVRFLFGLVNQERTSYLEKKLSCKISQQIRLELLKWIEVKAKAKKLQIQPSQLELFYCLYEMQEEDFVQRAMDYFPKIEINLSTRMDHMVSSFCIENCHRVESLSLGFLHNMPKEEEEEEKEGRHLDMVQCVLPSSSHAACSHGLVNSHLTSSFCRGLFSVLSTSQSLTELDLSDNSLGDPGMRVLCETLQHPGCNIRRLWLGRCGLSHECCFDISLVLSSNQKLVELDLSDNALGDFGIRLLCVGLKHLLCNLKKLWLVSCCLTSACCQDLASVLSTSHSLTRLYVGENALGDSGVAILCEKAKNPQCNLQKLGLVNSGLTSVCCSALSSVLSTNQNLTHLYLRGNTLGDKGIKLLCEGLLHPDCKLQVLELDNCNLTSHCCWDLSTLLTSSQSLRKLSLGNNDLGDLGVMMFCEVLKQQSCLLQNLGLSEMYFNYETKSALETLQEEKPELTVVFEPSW
EC50 (hNLRP3 inflammasome) [µM],EC50 (hTLR8) [µM],Compound
4.48,> 100,"Cn1cc(-c2cc3nc(N)cc(NCCCO)c3s2)cn1 [Compound 109, 3-((5-amino-2-(1-methyl-1H-pyrazol-4-yl)thieno[3,2-b]pyridin-7-yl)amino)-1-propanol]"
0.05,> 100,Nc1cc(NCCNC(=O)C2CC2)c2sc(-c3ccn[nH]3)cc2n1 [Compound 64]
0.03,> 100,"Nc1cc(NC[C@@H]2CCCO2)c2sc(-c3ccn[nH]3)cc2n1 [Compound 105, (S)-2-(1H-pyrazol-5-yl)-N^7-((tetrahydrofuran-2-yl)methyl)thieno[3,2-b]pyridine-5,7-diamine]"
0.05,> 100,"Nc1cc(NCC2CCOCC2)c2sc(-c3ccn[nH]3)cc2n1 [Compound 120, 2-(1H-pyrazol-5-yl)-N^7-((tetrahydro-2H-pyran-4-yl)methyl)thieno[3,2-b]pyridine-5,7-diamine]"
0.1,> 100,CC1(C)CCN(c2cc(N)nc3cc(-c4ccn[nH]4)sc23)CC1 [Compound 173]
0.01,> 100,C[C@@H]1CN(c2cc(N)nc3cc(-c4ccn[nH]4)sc23)C[C@H](C)O1 [Compound 169]
0.06,> 100,CC1CN(CCNc2cc(N)nc3cc(-c4ccn[nH]4)sc23)CC(C)O1 (stereo not drawn) [Compound 62]
0.04,> 100,"Cn1cc(CNc2cc(N)nc3cc(-c4ccn[nH]4)sc23)cn1 [Compound 106, N^7-(1-methyl-1H-pyrazol-4-yl)methyl-2-(1H-pyrazol-5-yl)thieno[3,2-b]pyridine-5,7-diamine]"
0.03,> 100,"CO[C@H](C)CNc1cc(N)nc2cc(-c3ccn[nH]3)sc12 [Compound 101, (R)—N^7-(2-methoxypropyl)-2-(1H-pyrazol-5-yl)thieno[3,2-b]pyridine-5,7-diamine]"
3.47,> 100,Cc1c(-c2ccn[nH]2)sc2c(NC[C@@H]3CCCO3)cc(N)nc12 [Compound 157]
0.01,> 100,COC1CCN(c2cc(N)nc3cc(-c4ccn[nH]4)sc23)C1 (stereo not drawn) [Compound 180]
0.1,> 100,"Nc1cc(N[C@H]2CC[C@H](O)C2)c2sc(-c3ccn[nH]3)cc2n1 [Compound 26, (1S,3S)-3-((5-amino-2-(1H-pyrazol-5-yl)thieno[3,2-b]pyridin-7-yl)amino)cyclopentanol]"
5.01,> 100,Cc1c(-c2cc[nH]n2)sc2c(NCC3CC3)cc(N)nc12 [Compound 156]
0.03,> 100,Nc1cc(N2CCC(O)CC2)c2sc(-c3ccn[nH]3)cc2n1 [Compound 172]
0.16,> 100,"CN1CCC(Nc2cc(N)nc3cc(-c4ccn[nH]4)sc23)CC1 [Compound 89, N^7-(1-methylpiperidin-4-yl)-2-(1H-pyrazol-5-yl)thieno[3,2-b]pyridine-5,7-diamine]"
0.34,> 100,Nc1cc(N2CCN(c3ccccc3)CC2)c2sc(-c3ccn[nH]3)cc2n1 [Compound 174]

# The next lines start with the compound.
Compound,EC50 (hNLRP3 inflammasome) [µM],EC50 (hTLR8) [µM]
"Nc1cc(N[C@@H]2CC[C@H](O)C2)c2sc(-c3ccn[nH]3)cc2n1 [Compound 31, (1S,3R)-3-((5-amino-2-(1H-pyrazol-5-yl)thieno[3,2-b]pyridin-7-yl)amino)cyclopentanol]",0.11,> 100
"Nc1cc(NC2CCC(O)CC2)c2sc(-c3ccn[nH]3)cc2n1 (stereo not drawn) [Compound 114, 4-((5-amino-2-(1H-pyrazol-5-yl)thieno[3,2-b]pyridin-7-yl)amino)-1-cyclohexanol]",0.06,> 100
CC(=O)NCCNc1cc(N)nc2cc(-c3ccn[nH]3)sc12 [Compound 52],0.2,> 100
"CN(CCNc1cc(N)nc2cc(-c3ccn[nH]3)sc12)C(=O)C1CC1 [Compound 75, N-(2-((5-amino-2-(1H-pyrazol-5-yl)thieno[3,2-b]pyridin-7-yl)amino)ethyl)-N-methylcyclopropionamide]",0.11,> 100
"Nc1cc(N[C@@H]2CCC[C@@H]2O)c2sc(-c3ccn[nH]3)cc2n1 [Compound 96, (1S,2R)-2-((5-amino-2-(1H-pyrazol-5-yl)thieno[3,2-b]pyridin-7-yl)amino)cyclopentanol]",0.07,> 100
Nc1cc(N2CCCC(O)C2)c2sc(-c3ccn[nH]3)cc2n1 (stereo not drawn) [Compound 166],0.34,> 100
"CC(C)(CO)CNc1cc(N)nc2cc(-c3ccn[nH]3)sc12 [Compound 115, 3-((5-amino-2-(1H-pyrazol-5-yl)thieno[3,2-b]pyridin-7-yl)amino)-2,2-dimethyl-1-propanol]",0.04,> 100
CC(=O)NCCCNc1cc(N)nc2cc(-c3ccn[nH]3)sc12 [Compound 53],0.18,> 100
"CC1(O)CCN(CCNc2cc(N)nc3cc(-c4ccn[nH]4)sc23)CC1 [Compound 98, 1-(2-((5-amino-2-(1H-pyrazol-5-yl)thieno[3,2-b]pyridin-7-yl)amino)ethyl)-4-methylpiperidine-4-ol]",0.35,> 100
"CN1CCN(CCNc2cc(N)nc3cc(-c4ccn[nH]4)sc23)CC1 [Compound 57, N^7-(2-(4-methylpiperazin-1-yl)ethyl)-2-(1H-pyrazol-5-yl)thieno[3,2-b]pyridine-5,7-diamine]",0.57,> 100
Cc1c(-c2cc[nH]n2)sc2c(NCCCO)cc(N)nc12 [Compound 159],1.29,> 100
COC1(C)CCN(c2cc(N)nc3cc(-c4ccn[nH]4)sc23)CC1 [Compound 165],0.03,> 100
N#CC1(CNc2cc(N)nc3cc(-c4ccn[nH]4)sc23)CC1 [Compound 119],0.01,> 100
"CN1CCN(CCCNc2cc(N)nc3cc(-c4ccn[nH]4)sc23)CC1 [Compound 54, N^7-(3-(4-methylpiperazin-1-yl)propyl)-2-(1H-pyrazol-5-yl)thieno[3,2-b]pyridine-5,7-diamine]",0.92,> 100
